This note sets out measurements from US20260224582A1, “Heterobicyclic amides as inhibitors of CD38” (Cerevance, Inc., priority 2022, published 2026).

Broadly, the IC50 is the concentration at which inhibition is half-maximal.

Where only a bound is given, the exact number is not on record here.

Assay [1] addresses T1, Recombinant human CD38 (Homo sapiens, UniProt P28907).
T1 sequence (P28907 1-300): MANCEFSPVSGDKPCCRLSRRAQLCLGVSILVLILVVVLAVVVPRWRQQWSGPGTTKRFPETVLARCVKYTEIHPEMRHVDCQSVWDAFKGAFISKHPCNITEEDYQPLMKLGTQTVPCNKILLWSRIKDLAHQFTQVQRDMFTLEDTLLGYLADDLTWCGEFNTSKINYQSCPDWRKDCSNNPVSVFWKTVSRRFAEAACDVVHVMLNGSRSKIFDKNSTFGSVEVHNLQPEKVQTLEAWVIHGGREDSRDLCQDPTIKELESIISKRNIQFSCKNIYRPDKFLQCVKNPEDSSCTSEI
As to the kind of experiment: Human CD38 hydrolase assay (fluorescence-based, ε-NAD substrate). The class given is biochemical. As to conditions: recombinant human CD38 0.8 nM, 4 μM ε-NAD, 30 min preincubation at 25° C. On the procedure: The ability of test compounds to inhibit human CD38 hydrolase activity was measured in a fluorescence-based assay using non-physiological NAD^+ substrate analogue 1,N^6-etheno NAD^+ (ε-NAD). Recombinant human CD38 (0.8 nM) was preincubated with test compounds in 384-well black microplates for 30 min at 25° C. in PBS (—Ca^2+/Mg^2+) containing 0.005% BSA (pH 7.4). CD38 hydrolase activity was initiated by addition of 4 μM ε-NAD, which yields the fluorescent product 1,N^6-etheno ADP-ribose. Formation of fluorescent product was followed using ClarioStar Plus (BMG) microplate reader by reading fluorescence (excitation λ=300 nm; emission λ=410 nm) at two time points, one immediately after substrate addition (t=0) and one at 10 min (t=10). Data was analysed by subtracting the values detected at t=0 from t=10 to correct for variation in baseline fluorescence. Fluorescence values were converted to percent inhibition using the average of high signal (CD38 and ε-NAD) and low signal (CD38 and ε-NAD in the presence of a tool CD38 inhibitor) control wells. IC50 values were determined from a 10-point, half log concentration response curve with a four-parameter logistic equation.

Assay [2] deals with T2, Recombinant mouse CD38 (Mus musculus, UniProt P56528).
T2 sequence (P56528 1-304): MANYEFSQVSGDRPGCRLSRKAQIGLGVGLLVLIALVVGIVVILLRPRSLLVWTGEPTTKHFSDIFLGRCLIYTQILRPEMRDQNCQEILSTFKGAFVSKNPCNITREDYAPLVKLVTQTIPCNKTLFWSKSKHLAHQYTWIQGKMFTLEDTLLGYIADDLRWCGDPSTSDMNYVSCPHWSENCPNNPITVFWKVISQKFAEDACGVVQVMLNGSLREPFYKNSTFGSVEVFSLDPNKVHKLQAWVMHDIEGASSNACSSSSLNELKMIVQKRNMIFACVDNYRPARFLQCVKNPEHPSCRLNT
As to the kind of experiment: Mouse CD38 hydrolase assay (fluorescence-based, ε-NAD substrate). The class given is biochemical. As to conditions: recombinant mouse CD38 0.4 nM, 12 μM ε-NAD, 30 min preincubation at 25° C. The protocol: The ability of test compounds to inhibit mouse CD38 hydrolase activity was measured in a fluorescence-based assay using non-physiological NAD^+ substrate analogue 1,N^6-etheno NAD^+ (&-NAD). Recombinant mouse CD38 (0.4 nM) was preincubated with test compounds in 384-well black microplates for 30 min at 25° C. in PBS (—Ca^2+/Mg^2+) containing 0.005% BSA (pH 7.4). CD38 hydrolase activity was initiated by addition of 12 μM ε-NAD, which yields the fluorescent product 1,N^6-etheno ADP-ribose. Formation of fluorescent product was followed using ClarioStar Plus (BMG) microplate reader by reading fluorescence (excitation λ=300 nm; emission λ=410 nm) at two time points, one immediately after substrate addition (t=0) and one at 6 min (t=6).
Data was analysed by subtracting the values detected at t=0 from t=6 to correct for variation in baseline fluorescence. Fluorescence values were converted to percent inhibition using the average of high signal (CD38 and ε-NAD) and low signal (CD38 and ε-NAD in the presence of a tool CD38 inhibitor) control wells. IC50 values were determined from a 10-point, halflog concentration response curve with a four-parameter logistic equation.

With `O=C(N[C@H]1CC[C@H](N2CC[C@@H](F)C2)CC1)c1nc(-n2ccnc2)nc2ncccc12` [Example 58, N-((1R,4r)-4-((R)-3-fluoropyrrolidin-1-yl)cyclohexyl)-2-(1H-imidazol-1-yl)pyrido[2,3-d]pyrimidine-4-carboxamide], the values for the concentration for half-maximal inhibition (IC50) in assay [1] and in assay [2] were at most 100 nM and at most 40 nM, respectively.

As for `CO[C@@H]1CCN([C@H]2CC[C@@H](NC(=O)c3cn4ncnc4c(-n4ccnc4)n3)CC2)C1` [Example 54, 8-(1H-imidazol-1-yl)-N-((1S,4s)-4-((R)-3-methoxypyrrolidin-1-yl)cyclohexyl)-[1,2,4]triazolo[1,5-a]pyrazine-6-carboxamide], the IC50 in assay [1] was at most 1000 nM; in assay [2], at most 40 nM. As for `O=C(N[C@H]1CC[C@H](N2CCCC2)CC1)c1nc(-n2ccnc2)nn2cccc12` [Example 43, 2-(1H-imidazol-1-yl)-N-((1r,4r)-4-(pyrrolidin-1-yl)cyclohexyl)pyrrolo[2,1-f][1,2,4]triazine-4-carboxamide], the IC50 in assay [1] was at most 40 nM. In the case of `Cn1cncc1-c1nc(C(=O)N[C@H]2CC[C@H](NCC(F)(F)F)CC2)c2cccn2n1` [Example 17, 2-(1-methyl-1H-imidazol-5-yl)-N-((1r,4r)-4-((2,2,2-trifluoroethyl)amino)cyclohexyl)pyrrolo[2,1-f][1,2,4]triazine-4-carboxamide], the half-maximal inhibitory concentration (IC50) in assay [1] and in assay [2] was at most 40 nM throughout.

As to `CC(F)(F)CN[C@H]1CC[C@H](NC(=O)c2cn3ncnc3c(-n3ccnc3)n2)CC1` [Example 57, N-((1r,4r)-4-((2,2-difluoropropyl)amino)cyclohexyl)-8-(1H-imidazol-1-yl)-[1,2,4]triazolo[1,5-a]pyrazine-6-carboxamide], the IC50 in assay [1] is at most 1000 nM; in assay [2], at most 40 nM. The matching figures for `O=C(NC1CCC2(CC1)CN(CC(F)(F)F)C2)c1nc(-n2ccnc2)nn2cccc12` [Example 8, 2-(1H-imidazol-1-yl)-N-(2-(2,2,2-trifluoroethyl)-2-azaspiro[3.5]nonan-7-yl)pyrrolo[2,1-f][1,2,4]triazine-4-carboxamide]: at most 40 nM and at most 40 nM. The matching figures for `O=C(N[C@H]1CC[C@H](N2CC[C@@H](F)C2)CC1)c1cn2nccc2c(-n2ccnc2)n1` [Example 35, N-((1R,4r)-4-((R)-3-fluoropyrrolidin-1-yl)cyclohexyl)-4-(1H-imidazol-1-yl)pyrazolo[1,5-a]pyrazine-6-carboxamide]: at most 100 nM and at most 40 nM. The matching figures for `O=C(NC1CC2(CC(NCC(F)(F)F)C2)C1)c1nc(-n2ccnc2)nn2cccc12` (single isomer, unassigned) [Example 10, 2-(1H-imidazol-1-yl)-N-(6-((2,2,2-trifluoroethyl)amino)spiro[3.3]heptan-2-yl)pyrrolo[2,1-f][1,2,4]triazine-4-carboxamide]: at most 40 nM and at most 40 nM.

With `O=C(N[C@H]1CC[C@H](N2CC[C@H](O)C2)CC1)c1nc(-n2ccnc2)nn2cccc12` [Example 23, N-((1S,4r)-4-((S)-3-hydroxypyrrolidin-1-yl)cyclohexyl)-2-(1H-imidazol-1-yl)pyrrolo[2,1-f][1,2,4]triazine-4-carboxamide], the half-inhibitory concentration (IC50) in assay [1] and in assay [2] was at most 40 nM in each case. As to `O=C(N[C@H]1CC[C@H](N2CC[C@H](F)C2)CC1)c1cn2nccc2c(-n2ccnc2)n1` [Example 36, N-((1S,4r)-4-((S)-3-fluoropyrrolidin-1-yl)cyclohexyl)-4-(1H-imidazol-1-yl)pyrazolo[1,5-a]pyrazine-6-carboxamide], the IC50 is at most 100 nM in assay [1] and at most 40 nM in assay [2]. For `O=C(N[C@H]1CC[C@H](NCC(F)(F)F)CC1)c1cc2ncnn2c(-n2ccnc2)n1` [Example 60, 5-(1H-imidazol-1-yl)-N-((1r,4r)-4-((2,2,2-trifluoroethyl)amino)cyclohexyl)-[1,2,4]triazolo[1,5-c]pyrimidine-7-carboxamide], the IC50 in assay [1] is at most 1000 nM. As for `O=C(N[C@H]1CC[C@H](N2CC[C@H](F)C2)CC1)c1nc(-n2ccnc2)nc2ncccc12` [Example 32, N-((1S,4r)-4-((S)-3-fluoropyrrolidin-1-yl)cyclohexyl)-2-(1H-imidazol-1-yl)pyrido[2,3-d]pyrimidine-4-carboxamide], the IC50 in assay [1] was at most 100 nM; in assay [2], at most 40 nM. Regarding `O=C(N[C@H]1CC[C@H](NCC(F)(F)F)CC1)c1cc2cccnc2c(-c2cncs2)n1` [Example 7, 8-(thiazol-5-yl)-N-((1r,4r)-4-((2,2,2-trifluoroethyl)amino)cyclohexyl)-1,7-naphthyridine-6-carboxamide], the figures for the concentration for half-maximal inhibition (IC50) in assay [1] and in assay [2] were at most 1000 nM and at most 40 nM, respectively. The matching figures for `O=C(N[C@H]1CC[C@H](N2CC[C@@H](F)C2)CC1)c1nc(-n2ccnc2)c2cccn2n1` [Example 28, N-((1R,4r)-4-((R)-3-fluoropyrrolidin-1-yl)cyclohexyl)-4-(1H-imidazol-1-yl)pyrrolo[2,1-f][1,2,4]triazine-2-carboxamide]: at most 10000 nM and at most 40 nM. The matching figures for `O=C(N[C@H]1CC[C@H](NCC(F)F)CC1)c1cn2ncnc2c(-n2ccnc2)n1` [Example 52, N-((1r,4r)-4-((2,2-difluoroethyl)amino)cyclohexyl)-8-(1H-imidazol-1-yl)-[1,2,4]triazolo[1,5-a]pyrazine-6-carboxamide]: at most 100 nM and at most 40 nM. The matching figures for `O=C(N[C@H]1CC[C@H](NCC(F)(F)F)CC1)c1nc(-n2ccnc2)cn2ncnc12` [Example 59, 6-(1H-imidazol-1-yl)-N-((1r,4r)-4-((2,2,2-trifluoroethyl)amino)cyclohexyl)-[1,2,4]triazolo[1,5-a]pyrazine-8-carboxamide]: at most 40 nM and at most 40 nM. For `O=C(N[C@H]1CC[C@H](NCC(F)(F)F)CC1)c1cc2cccnc2c(-n2ccnc2)n1` [Example 6, 8-(1H-imidazol-1-yl)-N-((1r,4r)-4-((2,2,2-trifluoroethyl)amino)cyclohexyl)-1,7-naphthyridine-6-carboxamide], in assay [1], the half-inhibitory concentration (IC50) was at most 10000 nM.

For `O=C(NC1CCOCC1)c1nc(-n2ccnc2)cc2nccn12` [Example 1, 7-(1H-imidazol-1-yl)-N-(tetrahydro-2H-pyran-4-yl) imidazo[1,2-c]pyrimidine-5-carboxamide], the half-inhibitory concentration (IC50) is at most 100 nM in assay [1] and at most 40 nM in assay [2]. Turning to `O=C(N[C@H]1CC[C@H](NCC(F)(F)F)CC1)c1nc(-c2cncs2)cn2cccc12` [Example 5, 3-(thiazol-5-yl)-N-((1r,4r)-4-((2,2,2-trifluoroethyl)amino)cyclohexyl)pyrrolo[1,2-a]pyrazine-1-carboxamide], the half-maximal inhibitory concentration (IC50) in assay [1] is at most 1000 nM; in assay [2], at most 40 nM. As to `O=C(N[C@H]1CC[C@H](N2CCOCC2)CC1)c1cn2ncnc2c(-n2ccnc2)n1` [Example 49, 8-(1H-imidazol-1-yl)-N-((1r,4r)-4-morpholinocyclohexyl)-[1,2,4]triazolo[1,5-a]pyrazine-6-carboxamide], the concentration for half-maximal inhibition (IC50) in assay [1] is at most 1000 nM. Same read-out and setting: with `O=C(N[C@H]1CC[C@H](N2CCC(F)(F)C2)CC1)c1cn2nccc2c(-n2ccnc2)n1` [Example 34, N-((1r,4r)-4-(3,3-difluoropyrrolidin-1-yl)cyclohexyl)-4-(1H-imidazol-1-yl)pyrazolo[1,5-a]pyrazine-6-carboxamide] the figure was at most 1000 nM.
